In patent publication US20070072209A1, “Methods of treatment and diagnosis of Kaposi's sarcoma (KS) and KS related diseases” (priority 2005, published 2007):

Tests used:
Format in all cases: cell-based, human
RDC1 mRNA = assay: qPCR of target mRNA after siRNA transfection: RDC1; details: relative to FITC-tagged control siRNA or transfection reagent alone; KSHV-DMVEC
Protocol: (§1) Quantitative PCR. Real-time PCR was performed on an ABI 7700 sequence detection system (Applied Biosystems). To normalize gene expression between mock and infected samples, 18S RNA, beta-Actin and GAPDH were assessed. […] Total RNA was treated with Dnase I (Dnase Free:Ambion) before synthesis of cDNA by random hexamers and Superscript II (Invitrogen). […] Relative expression values between mock and infected samples were calculated by the comparative CT Method as previously described (Moses et al, 2002). […]
(§2) siRNA treatment and Focus Inhibition Assay. siRNA oligonucleotides were designed using the oligoengine design tool (Oligoengine, Seattle, Wash.). […] Cells were monitored for up to 14 days for evidence of foci-formation, as described for the PMO-AS assays. […]
(§3) Specifically, FIGS. 6A-D show, according to particular aspects of the present invention, small interfering RNA (siRNA) inhibition of RDC1, Neuritin, INSR and IGFBP2. […] Cells were treated with siRNA and monitored for up to 14 days. To calculate mRNA degradation, mRNA was isolated and qPCR was performed. mRNA levels were calculated relative to a FITC-tagged control siRNA (100%).

KSHV-infected DMVEC = assay: siRNA treatment and focus inhibition assay; details: observed up to 14 days post-transfection
Protocol: siRNA treatment and Focus Inhibition Assay. siRNA oligonucleotides were designed using the oligoengine design tool (Oligoengine, Seattle, Wash.). RNA olionucleotides were purchased from Oligoengine or Dharmacon Inc. (Lafayette, Colo.). […] The twenty-one nucleotide RNA oligos were resuspended according to manufacturer's instructions to obtain either 20 microM or 50 microM solutions and delivered to DMVEC by transfection. For transfection, cells were seeded into 35 mm plates for overnight incubation, and transfections were performed at approximately 80% confluence according to published methods. Briefly, from a 20 microM siRNA stock solution, 12 microL of siRNA was added (240 pmol) to 200 microL OPTI-MEM medium (Gibco). After a 10 minute incubation, 12 microL Oligofectamine (Invitrogen) diluted in 48 microL OPTI-MEM was mixed with the diluted siRNA and incubated for an addition 20 minutes. The complex was added dropwise to a […] containing 1 ml of complete endothelial growth medium. Cells were monitored for up to 14 days for evidence of foci-formation, as described for the PMO-AS assays. Control Cy3-Luciferase GL2 Duplex siRNA (Dharmacon) was used to monitor transient tranfection and the duration of siRNA expression in endothelial cells. Cy3 siRNA was visible for over 3 weeks post-transfection. […]

Neuritin mRNA = assay: qPCR of target mRNA after siRNA transfection: Neuritin; details: relative to controls; RNA harvested day 3 post-transfection
Protocol: as §1, §2
as §3, with “(100%). […]” for “(100%).”

Substance | reduction of RDC1 mRNA (RDC1 mRNA) | KSHV-induced focus formation / contact inhibition after siRNA (KSHV-infected DMVEC) | reduction in Neuritin mRNA levels (Neuritin mRNA)
RDC1 siRNA #1: RDC1 siRNA giving the larger mRNA decrease; presumably RDC1-234, AACATGCCCAACAAAAGCGTC (guide AACATGCCCAACAAAAGCGTC; listed as DNA, chemistry not given here) | 56% | more stringent maintenance of contact inhibition | 
Neuritin siRNA: Neuritin siRNA, AAAGATATCTGATTAATTCCA (SEQ ID NO:42) (guide AAAGATATCTGATTAATTCCA; listed as DNA, chemistry not given here) |  | maintained contact-inhibited growth | 63%
